Literature values as cited in patent US9237750B2, “Ornidazole and related compounds for use as herbicides” (RAMOT AT TEL-AVIV UNIVERSITY LTD., priority 2012, dated 2016).

System: ferredoxin-linked NADP+ reduction
Details: photosystem II non-operative, ascorbate as electron source, broken spinach chloroplasts, DCPIP; cited from earlier work

Cc1ncc([N+](=O)[O-])n1CCO [Metronidazole, 1-β-hydroxyethyl-2-methyl-5-nitroimidazole]
inhibition of ferredoxin-linked NADP+ reduction: potent inhibitor
